Source: patent US10010545B1, “Antibiotic compositions and methods of use” (University of South Florida, priority 2013, dated 2018)
Converted amounts (≈) assume the structure as drawn.

Assays:
Acinetobacter baumannii = assay: Growth testing against ESKAPE pathogens: Acinetobacter baumannii; assay type: cell-based; parameters: key: Growth; X: No Growth
Description: (§1) Six analogs (FIG. 2) of the ciprofloxacin-N thiolated β-lactam were successfully synthesized. All these compounds were then tested against ESKAPE pathogens for bioactivity. The ESKAPE pathogens are a collection of six deadly superbugs, Enterococcus faecium, Staphylococcus aureus, Klebsiella pneumoniae, Acinetobacter baumannii, Pseudomonas aeruginosa, and Enterobacter species. […] G denotes growth and X denotes no growth in the tables.

Pseudomonas aeruginosa = assay: Growth testing against ESKAPE pathogens: Pseudomonas aeruginosa; assay type: cell-based; parameters: key: Growth; X: No Growth
Description: as §1

Enterococcus faecium = assay: Growth testing against ESKAPE pathogens: Enterococcus faecium; assay type: cell-based; parameters: key: Growth; X: No Growth
Description: as §1

Staphylococcus aureus = assay: Growth testing against ESKAPE pathogens: Staphylococcus aureus; assay type: cell-based; parameters: key to Activity against Staphylococcus aureus (growth observed): Growth; X: No Growth
Description: as §1

Klebesiella pneumonia = assay: Growth testing against ESKAPE pathogens: Klebesiella pneumonia; assay type: cell-based, Klebsiella pneumoniae; parameters: key: Growth; X: No Growth
Description: as §1

CCCCCC(=O)N1CCN(c2cc3c(cc2F)c(=O)c(C(=O)OC2C(=O)N(SC(C)CC)C2c2ccccc2Cl)cn3C2CC2)CC1 (stereo not drawn) [Lactam 129]
Activity against Acinetobacter baumannii (growth observed) (Acinetobacter baumannii; 1 μg/ml): G
Activity against Acinetobacter baumannii (growth observed) (Acinetobacter baumannii; 2 μg/ml): G
Activity against Acinetobacter baumannii (growth observed) (Acinetobacter baumannii; 3 μg/ml): G
Activity against Acinetobacter baumannii (growth observed) (Acinetobacter baumannii; 4 μg/ml): G
Activity against Acinetobacter baumannii (growth observed) (Acinetobacter baumannii; 5 μg/ml): G
Activity against Acinetobacter baumannii (growth observed) (Acinetobacter baumannii; 6 μg/ml): G
Activity against Acinetobacter baumannii (growth observed) (Acinetobacter baumannii; 7 μg/ml): G
Activity against Acinetobacter baumannii (growth observed) (Acinetobacter baumannii; 8 μg/ml): G
Activity against Acinetobacter baumannii (growth observed) (Acinetobacter baumannii; 9 μg/ml): G
Activity against Acinetobacter baumannii (growth observed) (Acinetobacter baumannii; 10 μg/ml): G
Activity against Acinetobacter baumannii (growth observed) (Acinetobacter baumannii; 25 μg/ml): G
Activity against Pseudomonas aeruginosa (growth observed) (Pseudomonas aeruginosa; 1 μg/ml): G
Activity against Pseudomonas aeruginosa (growth observed) (Pseudomonas aeruginosa; 2 μg/ml): G
Activity against Pseudomonas aeruginosa (growth observed) (Pseudomonas aeruginosa; 3 μg/ml): G
Activity against Pseudomonas aeruginosa (growth observed) (Pseudomonas aeruginosa; 4 μg/ml): G
Activity against Pseudomonas aeruginosa (growth observed) (Pseudomonas aeruginosa; 5 μg/ml): G
Activity against Pseudomonas aeruginosa (growth observed) (Pseudomonas aeruginosa; 6 μg/ml): G
Activity against Pseudomonas aeruginosa (growth observed) (Pseudomonas aeruginosa; 7 μg/ml): G
Activity against Pseudomonas aeruginosa (growth observed) (Pseudomonas aeruginosa; 8 μg/ml): G
Activity against Pseudomonas aeruginosa (growth observed) (Pseudomonas aeruginosa; 9 μg/ml): G
Activity against Pseudomonas aeruginosa (growth observed) (Pseudomonas aeruginosa; 10 μg/ml): G
Activity against Pseudomonas aeruginosa (growth observed) (Pseudomonas aeruginosa; 25 μg/ml): G
Activity against Enterococcus faecium (growth observed) (Enterococcus faecium; 1 μg/ml): G
Activity against Enterococcus faecium (growth observed) (Enterococcus faecium; 2 μg/ml): G
Activity against Enterococcus faecium (growth observed) (Enterococcus faecium; 3 μg/ml): G
Activity against Enterococcus faecium (growth observed) (Enterococcus faecium; 4 μg/ml): G
Activity against Enterococcus faecium (growth observed) (Enterococcus faecium; 5 μg/ml): G
Activity against Enterococcus faecium (growth observed) (Enterococcus faecium; 6 μg/ml): G
Activity against Enterococcus faecium (growth observed) (Enterococcus faecium; 7 μg/ml): G
Activity against Enterococcus faecium (growth observed) (Enterococcus faecium; 8 μg/ml): G
Activity against Enterococcus faecium (growth observed) (Enterococcus faecium; 9 μg/ml): G
Activity against Enterococcus faecium (growth observed) (Enterococcus faecium; 10 μg/ml): G
Activity against Enterococcus faecium (growth observed) (Enterococcus faecium; 25 μg/ml): G
Activity against Staphylococcus aureus (growth observed) (Staphylococcus aureus; 1 μg/ml): G
Activity against Staphylococcus aureus (growth observed) (Staphylococcus aureus; 2 μg/ml): G
Activity against Staphylococcus aureus (growth observed) (Staphylococcus aureus; 3 μg/ml): G
Activity against Staphylococcus aureus (growth observed) (Staphylococcus aureus; 4 μg/ml): G
Activity against Staphylococcus aureus (growth observed) (Staphylococcus aureus; 5 μg/ml): G
Activity against Staphylococcus aureus (growth observed) (Staphylococcus aureus; 6 μg/ml): G
Activity against Staphylococcus aureus (growth observed) (Staphylococcus aureus; 7 μg/ml): G
Activity against Staphylococcus aureus (growth observed) (Staphylococcus aureus; 8 μg/ml): G
Activity against Staphylococcus aureus (growth observed) (Staphylococcus aureus; 9 μg/ml): G
Activity against Staphylococcus aureus (growth observed) (Staphylococcus aureus; 10 μg/ml): G
Activity against Staphylococcus aureus (growth observed) (Staphylococcus aureus; 25 μg/ml): G
Activity against Klebesiella pneumonia (growth observed) (Klebesiella pneumonia; 1 μg/ml): G
Activity against Klebesiella pneumonia (growth observed) (Klebesiella pneumonia; 2 μg/ml): G
Activity against Klebesiella pneumonia (growth observed) (Klebesiella pneumonia; 3 μg/ml): G
Activity against Klebesiella pneumonia (growth observed) (Klebesiella pneumonia; 4 μg/ml): G
Activity against Klebesiella pneumonia (growth observed) (Klebesiella pneumonia; 5 μg/ml): G
Activity against Klebesiella pneumonia (growth observed) (Klebesiella pneumonia; 6 μg/ml): G
Activity against Klebesiella pneumonia (growth observed) (Klebesiella pneumonia; 7 μg/ml): G
Activity against Klebesiella pneumonia (growth observed) (Klebesiella pneumonia; 8 μg/ml): G
Activity against Klebesiella pneumonia (growth observed) (Klebesiella pneumonia; 9 μg/ml): G
Activity against Klebesiella pneumonia (growth observed) (Klebesiella pneumonia; 10 μg/ml): G
Activity against Klebesiella pneumonia (growth observed) (Klebesiella pneumonia; 25 μg/ml): G

CCCCCCC(=O)N1CCN(c2cc3c(cc2F)c(=O)c(C(=O)OC2C(=O)N(SC(C)CC)C2c2ccccc2Cl)cn3C2CC2)CC1 (stereo not drawn) [Lactam 130]
Activity against Acinetobacter baumannii (growth observed) (Acinetobacter baumannii; 1 μg/ml): G
Activity against Acinetobacter baumannii (growth observed) (Acinetobacter baumannii; 2 μg/ml): G
Activity against Acinetobacter baumannii (growth observed) (Acinetobacter baumannii; 3 μg/ml): G
Activity against Acinetobacter baumannii (growth observed) (Acinetobacter baumannii; 4 μg/ml): G
Activity against Acinetobacter baumannii (growth observed) (Acinetobacter baumannii; 5 μg/ml): G
Activity against Acinetobacter baumannii (growth observed) (Acinetobacter baumannii; 6 μg/ml): G
Activity against Acinetobacter baumannii (growth observed) (Acinetobacter baumannii; 7 μg/ml): G
Activity against Acinetobacter baumannii (growth observed) (Acinetobacter baumannii; 8 μg/ml): G
Activity against Acinetobacter baumannii (growth observed) (Acinetobacter baumannii; 9 μg/ml): G
Activity against Acinetobacter baumannii (growth observed) (Acinetobacter baumannii; 10 μg/ml): G
Activity against Acinetobacter baumannii (growth observed) (Acinetobacter baumannii; 25 μg/ml): G
Activity against Pseudomonas aeruginosa (growth observed) (Pseudomonas aeruginosa; 1 μg/ml): G
Activity against Pseudomonas aeruginosa (growth observed) (Pseudomonas aeruginosa; 2 μg/ml): G
Activity against Pseudomonas aeruginosa (growth observed) (Pseudomonas aeruginosa; 3 μg/ml): G
Activity against Pseudomonas aeruginosa (growth observed) (Pseudomonas aeruginosa; 4 μg/ml): G
Activity against Pseudomonas aeruginosa (growth observed) (Pseudomonas aeruginosa; 5 μg/ml): G
Activity against Pseudomonas aeruginosa (growth observed) (Pseudomonas aeruginosa; 6 μg/ml): G
Activity against Pseudomonas aeruginosa (growth observed) (Pseudomonas aeruginosa; 7 μg/ml): G
Activity against Pseudomonas aeruginosa (growth observed) (Pseudomonas aeruginosa; 8 μg/ml): G
Activity against Pseudomonas aeruginosa (growth observed) (Pseudomonas aeruginosa; 9 μg/ml): G
Activity against Pseudomonas aeruginosa (growth observed) (Pseudomonas aeruginosa; 10 μg/ml): G
Activity against Pseudomonas aeruginosa (growth observed) (Pseudomonas aeruginosa; 25 μg/ml): G
Activity against Enterococcus faecium (growth observed) (Enterococcus faecium; 1 μg/ml): G
Activity against Enterococcus faecium (growth observed) (Enterococcus faecium; 2 μg/ml): G
Activity against Enterococcus faecium (growth observed) (Enterococcus faecium; 3 μg/ml): G
Activity against Enterococcus faecium (growth observed) (Enterococcus faecium; 4 μg/ml): G
Activity against Enterococcus faecium (growth observed) (Enterococcus faecium; 5 μg/ml): G
Activity against Enterococcus faecium (growth observed) (Enterococcus faecium; 6 μg/ml): G
Activity against Enterococcus faecium (growth observed) (Enterococcus faecium; 7 μg/ml): G
Activity against Enterococcus faecium (growth observed) (Enterococcus faecium; 8 μg/ml): G
Activity against Enterococcus faecium (growth observed) (Enterococcus faecium; 9 μg/ml): G
Activity against Enterococcus faecium (growth observed) (Enterococcus faecium; 10 μg/ml): G
Activity against Enterococcus faecium (growth observed) (Enterococcus faecium; 25 μg/ml): G
Activity against Staphylococcus aureus (growth observed) (Staphylococcus aureus; 1 μg/ml): G
Activity against Staphylococcus aureus (growth observed) (Staphylococcus aureus; 2 μg/ml): G
Activity against Staphylococcus aureus (growth observed) (Staphylococcus aureus; 3 μg/ml): G
Activity against Staphylococcus aureus (growth observed) (Staphylococcus aureus; 4 μg/ml): G
Activity against Staphylococcus aureus (growth observed) (Staphylococcus aureus; 5 μg/ml): G
Activity against Staphylococcus aureus (growth observed) (Staphylococcus aureus; 6 μg/ml): G
Activity against Staphylococcus aureus (growth observed) (Staphylococcus aureus; 7 μg/ml): G
Activity against Staphylococcus aureus (growth observed) (Staphylococcus aureus; 8 μg/ml): G
Activity against Staphylococcus aureus (growth observed) (Staphylococcus aureus; 9 μg/ml): G
Activity against Staphylococcus aureus (growth observed) (Staphylococcus aureus; 10 μg/ml): X
Activity against Staphylococcus aureus (growth observed) (Staphylococcus aureus; 25 μg/ml): X
MIC (Staphylococcus aureus; against S. aureus): 10 µg/mL (≈ 14.1 µM)
Activity against Klebesiella pneumonia (growth observed) (Klebesiella pneumonia; 1 μg/ml): G
Activity against Klebesiella pneumonia (growth observed) (Klebesiella pneumonia; 2 μg/ml): G
Activity against Klebesiella pneumonia (growth observed) (Klebesiella pneumonia; 3 μg/ml): G
Activity against Klebesiella pneumonia (growth observed) (Klebesiella pneumonia; 4 μg/ml): G
Activity against Klebesiella pneumonia (growth observed) (Klebesiella pneumonia; 5 μg/ml): G
Activity against Klebesiella pneumonia (growth observed) (Klebesiella pneumonia; 6 μg/ml): G
Activity against Klebesiella pneumonia (growth observed) (Klebesiella pneumonia; 7 μg/ml): G
Activity against Klebesiella pneumonia (growth observed) (Klebesiella pneumonia; 8 μg/ml): G
Activity against Klebesiella pneumonia (growth observed) (Klebesiella pneumonia; 9 μg/ml): G
Activity against Klebesiella pneumonia (growth observed) (Klebesiella pneumonia; 10 μg/ml): G
Activity against Klebesiella pneumonia (growth observed) (Klebesiella pneumonia; 25 μg/ml): G
